# Values of other authors in US8455478B2, “Rapid onset liquid midazolam composition for buccal administration” (Special Products, Ltd., priority 2010, dated 2013).
# Settings: pH 8, aqueous solution
smiles,measurement,value
"Cc1ncc2n1-c1ccc(Cl)cc1C(c1ccccc1F)=NC2 [midazolam, 8-chloro-6-(2-fluorophenyl)-1-methyl-4H-imidazo[1,5-a][1,4]]",solubility of midazolam,55 µg/mL
